Source: patent publication US10696677B2 (Research Triangle Institute, priority 2016, dated 2020)

Test system: MDCK
Assay: MDCK BBB Assay
Assay type: in vitro ADME
Details: MDCK BBB assay

Compound	% Permeable
O=C(Nc1ccccc1)NC1CCN(c2ncnc3c2nc(-c2ccccc2Cl)n3-c2ccc(Cl)cc2)CC1 [Compound 18, 3-{1-[8-(2-Chlorophenyl)-9-(4-chlorophenyl)-9H-purin-6-yl]piperidin-4-yl}-1-phenylurea]	0%
Clc1ccc(-n2c(-c3ccccc3Cl)nc3c(N4CCN(c5ccccn5)CC4)ncnc32)cc1 [Compound 67, 8-(2-Chlorophenyl)-9-(4-chlorophenyl)-6-(4-pyridin-2-ylpiperazin-1-yl)-9H-purine]	0%
COc1ccc(N2CCN(c3ncnc4c3nc(-c3ccccc3Cl)n4-c3ccc(Cl)cc3)CC2)cc1 [Compound 72, 8-(2-Chlorophenyl)-9-(4-chlorophenyl)-6-[4-(4-methoxyphenyl)piperazin-1-yl]-9H-purine]	0%
N#Cc1ccccc1N1CCN(c2ncnc3c2nc(-c2ccccc2Cl)n3-c2ccc(Cl)cc2)CC1 [Compound 74, 2-{4-[8-(2-Chlorophenyl)-9-(4-chlorophenyl)-9H-purin-6-yl]piperazin-1-yl}benzonitrile]	0%
Clc1ccc(CN2CCN(c3ncnc4c3nc(-c3ccccc3Cl)n4-c3ccc(Cl)cc3)CC2)cc1 [Compound 77, 6-[4-(4-Chlorobenzyl)piperazin-1-yl]-8-(2-chlorophenyl)-9-(4-chlorophenyl)-9H-purine]	~100%

Test system: not given
Assay: not given
Details: not given

Compound	melting point
CC1(NC(=O)NC2CCC(F)(F)CC2)CCN(c2ncnc3c2nc(-c2ccccc2Cl)n3-c2ccc(Cl)cc2)CC1	175 to 177 °C
O=S(=O)(NC1CCN(c2ncnc3c2nc(-c2ccccc2Cl)n3-c2ccc(OC(F)F)nc2)CC1)c1ccc(F)c(F)c1 [Compound 8, N-{1-[8-(2-Chlorophenyl)-9-[6-(difluoromethoxy)pyridin-3-yl]-9H-purin-6-yl]piperidin-4-yl}-3,4-difluorobenzene-1-sulfonamide]	212 to 213 °C
O=S(=O)(NC1CCN(c2ncnc3c2nc(-c2ccccc2Cl)n3-c2ccc(C(F)(F)F)nc2)CC1)c1ccc(F)c(F)c1 [Compound 10, N-{1-[8-(2-Chlorophenyl)-9-[6-(trifluoromethyl)pyridin-3-yl]-9H-purin-6-yl]piperidin-4-yl}-3,4-difluorobenzene-1-sulfonamide]	214 to 215 °C
Cc1cc(-n2c(-c3ccccc3Cl)nc3c(N4CCC(NS(=O)(=O)c5ccc(F)c(F)c5)CC4)ncnc32)no1 [Compound 11, N-{1-[8-(2-Chlorophenyl)-9-(5-methyl-1,2-oxazol-3-yl)-9H-purin-6-yl]piperidin-4-yl}-3,4-difluorobenzene-1-sulfonamide]	180 to 182 °C
Cn1ccc(-n2c(-c3ccccc3Cl)nc3c(N4CCC(NS(=O)(=O)c5ccc(F)c(F)c5)CC4)ncnc32)n1 [Compound 13, N-{1-[8-(2-Chlorophenyl)-9-(1-methyl-1H-pyrazol-3-yl)-9H-purin-6-yl]piperidin-4-yl}-3,4-difluorobenzene-1-sulfonamide]	206 to 208 °C
CCCCC(=O)NC1CCN(c2ncnc3c2nc(-c2ccccc2Cl)n3-c2ccc(C(F)(F)F)nc2)CC1 [Compound 14, N-{1-[8-(2-Chlorophenyl)-9-[6-(trifluoromethyl)pyridin-3-yl]-9H-purin-6-yl]piperidin-4-yl}pentanamide]	192 to 193 °C
O=C(NCC1CCCCC1)NC1CCN(c2ncnc3c2nc(-c2ccccc2Cl)n3-c2ccc(C(F)(F)F)nc2)CC1 [Compound 16, 3-{1-[8-(2-Chlorophenyl)-9-[6-(trifluoromethyl)pyridin-3-yl]-9H-purin-6-yl]piperidin-4-yl}-1-(cyclohexylmethyl)urea]	230 to 232 °C
O=C(NCC1CCCCC1)NC1CCN(c2ncnc3c2nc(-c2ccccc2Cl)n3-c2ccc(OC(F)F)nc2)CC1 [Compound 17, 3-{1-[8-(2-Chlorophenyl)-9-[6-(difluoromethoxy)pyridin-3-yl]-9H-purin-6-yl]piperidin-4-yl}-1-(cyclohexylmethyl)urea]	141 to 143 °C
